Laboratory results as given in ChEMBL document CHEMBL5614413, “Design, synthesis and biological evaluation of amphiphilic benzopyran derivatives as potent antibacterial agents against multidrug-resistant bacteria” (Eur J Med Chem, 2024).
In brackets after ≈: the same amount, converted by molar mass. Activity calls are given as the source filed them. The rule behind the calls is not given here.

Legend:
[1] = test system: Staphylococcus aureus; experiment: Antibacterial activity against erythromycin-susceptible Staphylococcus aureus ATCC 25923; format: functional
[2] = test system: Staphylococcus aureus; experiment: Bactericidal activity against methicillin-resistant Staphylococcus aureus ATCC 43300 in presence of 50% human blood by Mueller Hinton broth based assay; format: functional; details: ATCC 43300, Blood, time <= 6 hrs
[3] = test system: Staphylococcus aureus; experiment: Antibacterial activity against penicillin-resistant Staphylococcus aureus ATCC 31007; format: functional
[4] = test system: Staphylococcus aureus; experiment: Antibacterial activity against methicillin-resistant Staphylococcus aureus ATCC 43300; format: functional
[5] = test system: Bacillus subtilis; experiment: Antibacterial activity against penicillin-susceptible Bacillus subtilis ATCC 9372; format: functional
[6] = test system: Enterococcus faecalis; experiment: Antibacterial activity against vancomycin-susceptible Enterococcus faecalis ATCC 29212; format: functional
[7] = test system: Staphylococcus epidermidis; experiment: Antibacterial activity erythromycin-susceptible Staphylococcus epidermidis ATCC 12228; format: functional
[8] = test system: Klebsiella pneumoniae; experiment: Antibacterial activity against Klebsiella pneumoniae ATCC 10031; format: functional
[9] = test system: Acinetobacter baumannii; experiment: Antibacterial activity against Acinetobacter baumannii ATCC 19606; format: functional
[10] = test system: Escherichia coli; experiment: Antibacterial activity against penicillin-susceptible Escherichia coli ATCC 25922; format: functional
[11] = test system: Pseudomonas aeruginosa; experiment: Antibacterial activity against penicillin-susceptible Pseudomonas aeruginosa ATCC 27853; format: functional
[12] = Hemolytic activity in sheep RBC; format: toxicity, cell-based, Ovis aries, Erythrocyte; details: sheep red blood cells (erythrocytes)
[13] = Selectivity index, ratio of HC50 for hemolytic activity in sheep RBC to MIC for antibacterial activity against methicillin-resistant Staphylococcus aureus ATCC 43300; format: toxicity; details: sheep red blood cells (erythrocytes), read-out: Selectivity Index
[14] = test system: Staphylococcus aureus; experiment: Selectivity ratio of MBC for bactericidal activity against methicillin-resistant Staphylococcus aureus ATCC 43300 preincubated with 50% human plasma upto 6 hrs to MBC for bactericidal activity against methicillin-resistant Staphylococcus aureus ATCC 43300; format: functional
[15] = test system: Staphylococcus aureus; experiment: Bactericidal activity against methicillin-resistant Staphylococcus aureus ATCC 43300 in presence of 50% human serum by Mueller Hinton broth based assay; format: functional
[16] = test system: Staphylococcus aureus; experiment: Bactericidal activity against methicillin-resistant Staphylococcus aureus ATCC 43300 in presence of 50% human plasma by Mueller Hinton broth based assay; format: functional
[17] = test system: Staphylococcus aureus; experiment: Bactericidal activity against methicillin-resistant Staphylococcus aureus ATCC 43300 by Mueller Hinton broth based assay; format: functional; details: time <= 6 hrs
[18] = test system: Staphylococcus aureus; experiment: Bactericidal activity against methicillin-resistant Staphylococcus aureus ATCC 43300 assessed as log reduction in bacterial growth at 16 times of MIC measured after 4 hrs by time killing analysis; format: functional
[19] = test system: Staphylococcus aureus; experiment: Bactericidal activity against methicillin-resistant Staphylococcus aureus ATCC 43300 assessed as bacterial eradication at 16 times of MIC measured at 8 hrs by time kill kinetics analysis relative to control; format: functional
[20] = test system: Staphylococcus aureus; experiment: Bactericidal activity against methicillin-resistant Staphylococcus aureus ATCC 43300 assessed as reduction in bacterial growth; format: functional, organism-based
[21] = test system: Staphylococcus aureus; experiment: Antibacterial activity against methicillin-resistant Staphylococcus aureus ATCC 43300 at 1/2 times of MIC measured after 20 passage; format: functional, organism-based
[22] = test system: Staphylococcus aureus; experiment: Inhibition of biofilm formation in methicillin-resistant Staphylococcus aureus ATCC 43300 at 2 microg/ml relative to control; format: functional
[23] = test system: Staphylococcus aureus; experiment: Inhibition of biofilm formation in methicillin-resistant Staphylococcus aureus ATCC 43300 at 8 microg/ml relative to control; format: functional
[24] = test system: Staphylococcus aureus; experiment: Inhibition of biofilm formation in methicillin-resistant Staphylococcus aureus ATCC 43300 at 16 microg/ml relative to control; format: functional
[25] = test system: Staphylococcus aureus; experiment: Disruption of preformed biofilm in methicillin-resistant Staphylococcus aureus ATCC 43300 assessed as eradication of biofilm by crystal violet staining method; format: functional, organism-based; details: dose 2-64 µg/ml
[26] = test system: Staphylococcus aureus; experiment: Disruption of preformed biofilm in methicillin-resistant Staphylococcus aureus ATCC 43300 assessed as eradication of biofilm at 8 microg/ml by crystal violet staining based analysis relative to control; format: functional; details: dose 8 µg/ml
[27] = test system: Staphylococcus aureus; experiment: Disruption of preformed biofilm in methicillin-resistant Staphylococcus aureus ATCC 43300 assessed as eradication of biofilm at 64 microg/ml by crystal violet staining based analysis relative to control; format: functional; details: dose 64 µg/ml
[28] = test system: Cell membrane; experiment: Disruption of cell membrane in methicilin-resistant Staphylococcus aureus ATCC 43300 assessed as appearance of wrinkled cell membrane by scanning electron microscopic analysis; format: cell membranes
[29] = test system: Cell membrane; experiment: Disruption of cell membrane in methicilin-resistant Staphylococcus aureus ATCC 43300 assessed as appearance of collapsed cell membrane by scanning electron microscopic analysis; format: cell membranes
[30] = test system: Cell membrane; experiment: Disruption of cell membrane in methicillin-resistant Staphylococcus aureus ATCC 43300 assessed as appearance of broken surface by scanning electron microscopic analysis; format: cell membranes
[31] = test system: Cell membrane; experiment: Disruption of cell membrane integrity in methicillin-resistant Staphylococcus aureus ATCC 43300 assessed as appearance of blue fluorescence by DAPI/PI staining based microscopic analysis; format: cell membranes
[32] = test system: Cell membrane; experiment: Disruption of cell membrane integrity in methicillin-resistant Staphylococcus aureus ATCC 43300 assessed as appearance of red fluorescence by DAPI/PI staning based microscopic analysis; format: cell membranes
[33] = test system: Cell membrane; experiment: Induction of cytoplasmic membrane depolarization in methicillin-resistant Staphylococcus aureus ATCC 43300 assessed as increase in fluorescence intensity by DiSC3(5) dye-based fluorescence assay; format: cell membranes
[34] = test system: Cell membrane; experiment: Induction of cytoplasmic membrane depolarization in methicillin-resistant Staphylococcus aureus ATCC 43300 assessed as increase in fluorescence intensity at 2 microg/ml by DiSC3(5) dye-based fluorescence assay; format: cell membranes; details: dose 2.0 µg/ml
[35] = test system: Cell membrane; experiment: Induction of cytoplasmic membrane permeabilization in methicillin-resistant Staphylococcus aureus ATCC 43300 assessed as increase fluorescence intensity at 16 microg/ml by PI staining based fluorescence analysis; format: cell membranes; details: dose 16.0 µg/ml
[36] = test system: Cell membrane; experiment: Induction of cell membrane disruption in methicillin-resistant Staphylococcus aureus ATCC 43300 assessed as increase in DNA leakage; format: cell membranes
[37] = test system: Cell membrane; experiment: Induction of cell membrane disruption in methicillin-resistant Staphylococcus aureus ATCC 43300 assessed as increase in protein leakage; format: cell membranes
[38] = test system: Staphylococcus aureus; experiment: Selectivity ratio of MBC for bactericidal activity against methicillin-resistant Staphylococcus aureus ATCC 43300 in presence of 50% human blood to MBC for bactericidal activity against methicillin-resistant Staphylococcus aureus ATCC 43300; format: functional
[39] = test system: Staphylococcus aureus; experiment: Selectivity ratio of MBC for bactericidal activity against methicillin-resistant Staphylococcus aureus ATCC 43300 in presence of 50% human serum to MBC for bactericidal activity against methicillin-resistant Staphylococcus aureus ATCC 43300; format: functional
[40] = test system: Staphylococcus aureus; experiment: Bacteriostatic activity against methicillin-resistant Staphylococcus aureus ATCC 43300 assessed as inhibition of bacterial growth at 1 times of MIC measured after 24 hrs by time-kill kinetic analysis; format: functional, organism-based
[41] = test system: Staphylococcus aureus; experiment: Bacteriostatic activity against methicillin-resistant Staphylococcus aureus ATCC 43300 assessed as inhibition of bacterial growth at 2 times of MIC measured after 24 hrs by time-kill kinetic analysis; format: functional, organism-based
[42] = test system: Staphylococcus aureus; experiment: Drug resistance, ratio of MIC for methicillin-resistant Staphylococcus aureus ATCC 43300 after 20 passages to MIC for methicillin-resistant Staphylococcus aureus ATCC 43300 during first exposure; format: functional
[43] = test system: Staphylococcus aureus; experiment: Inhibition of biofilm formation in methicillin-resistant Staphylococcus aureus ATCC 43300; format: functional, organism-based; details: dose 2-32 µg/ml
[44] = test system: Staphylococcus aureus; experiment: Induction of ROS production in methicillin-resistant Staphylococcus aureus ATCC 43300 assessed as fold increase in ROS level at 32 microg/ml by DCFH-DA staining based analysis; details: dose 32 µg/ml

Compound `CCN(CC)CCCNCCCOc1ccc(/C=C/C(=O)c2ccc3c(c2OC)C=CC(C)(CCC=C(C)C)O3)cc1` (centres undefined) has an MIC [1] of 2 µg/mL (≈ 3.48 µM), an MBC [2] of 64 µg/mL and an MIC [3] of 1 µg/mL (≈ 1.74 µM). It also gave an MIC [4] of 2 µg/mL (≈ 3.48 µM), an MIC [5] of 1 µg/mL (≈ 1.74 µM) and an MIC [6] of 2 µg/mL (≈ 3.48 µM). The MIC [7] was 1 µg/mL (≈ 1.74 µM), the MIC [8] was 4 µg/mL (≈ 6.96 µM) and the MIC [9] was 8 µg/mL (≈ 13.9 µM). It also gave an MIC [10] of 2 µg/mL (≈ 3.48 µM), an MIC [11] of 64 µg/mL (≈ 111 µM) and an HC50 [12] of 270 µg/mL. For the same compound, the selectivity ratio [13] was 135, the selectivity ratio [14] was less than 2 and the MBC [15] was 32 µg/mL. The MBC [16] was 32 µg/mL, the MBC [17] was 32 µg/mL (≈ 55.7 µM) and the “log(activity)” value [18] was 6. The Activity [19] was 100%, the Activity [20] was “Dose-Dependent Effect” and the Activity [21] was “Active”. The inhibition at 2 µg/mL [22] was 21.2%, the inhibition at 8 µg/mL [23] was 91.6% and the inhibition at 16 µg/mL [24] was greater than 92%. For the same compound, the Activity [25] was “Dose-Dependent Effect”, the Activity [26] was 19.12% and the Activity [27] was greater than 40%. The Activity [28] was “Active”, the Activity [29] was “Active” and the Activity [30] was “Active”. The Activity [31] was “Active”, the Activity [32] was “Active” and the Activity [33] was “Dose-Dependent Effect”. For the same compound, the Activity [34] was “inactive”, the Activity [35] was “Active” and the Activity [36] was “Active”. For the same compound, the Activity [37] was “Active”, the selectivity ratio [38] was 2 and the selectivity ratio [39] was 2. For the same compound, the Activity [40] was “Active”, the Activity [41] was “Active” and the Ratio [42] was 2. For the same compound, the inhibition [43] was “Dose-Dependent Effect” and the “fold change (FC)” value [44] was 14.
